“And” between values parts separate entries of the source, which are not always exact repeats. Equal entries are not always repeated.
Legend:
[1] = system: T8 SCI rats; assay: Respiratory function by head-out plethysmograph in conscious rats after T8 contusion SCI; assay type: in vivo, rat
Experimental: Female Sprague-Dawley rats (250–280 g and 360–390 g; Taconic, Germantown, N.Y.) were anesthetized with 4% chloral hydrate (360 mg/kg, i.p.). An incomplete spinal courd contusion injury was produced at T8 with a weight drop device (10 g×2.5 cm) as previously described (Wrathall et al., 1985). After SCI, manual expression of bladders was performed twice daily until a reflex bladder was established. Animal care also included housing the rats in pairs to reduce isolation-induced stress, maintaining ambient temperature at 22–25° C., and using highly absorbent bedding. No prophylactic antibiotics were given.
(§1) Experiments were conducted in unanesthetized, awake, spontaneously breathing rats at 24 hours prior to SCI, at 24 hours p.i. and weekly afterwards at 1,2,3, and 4 weeks p.i. (1) Acclimatization of the Animals. […] Animals were placed in the body cylinder of the plethysmograph (FIG. 1a) for 60 minutes per day for at least 5 days. […] (2) Non-Invasive Measurements of Respiratory Rate, Tidal Volume and Minute Ventilation. Non-invasive measurements of respiratory function in conscious rats were performed with a restrained head-out plethysmograph specially designed for rodents (BUXCO Electronics, Inc., Sharon, Conn.) (FIG. 1a). The plethymograph apparatus has a neck seal that prevents leakage of air from between the animal's neck and the plethymograph opening. Displacement of the thoracic wall produced by the animal's respiratory movements causes changes in the cylinder pressure, which results in air flowing across a pneumotachograph located on the wall of the cylinder. The pressure drop across the pneumotachograph is measured with a pressure transducer and is proportional to the flow. This signal is amplified and integrated into volume. From measurements of volume and flow, a computer and appropriate software provides respiratory parameters, such as respiratory rate (f), tidal volume (Vt), minute ventilation (Ve), peak inspiratory flow, peak expiratory flow, inspiratory time (Ti), expiratory time (Te), and accumulated volume. An additional opening on the wall of the box allows volume calibration by injecting and removing air from the box with a calibrated syringe.
(§2) The noise level in the laboratory was kept to a minimum in order not to startle the animals. Further, the animals were visually isolated from the investigators by means of a chamber made of an opaque material that surrounded and covered the front-end of the body plethysmograph (FIG. 1b). Baseline recordings lasted for 4 minutes. (3) Measurement of Ventilatory Response to Carbon Dioxide. For measurement of the ventilatory response to CO2, animals were exposed to air containing 7% CO2. The animals breathed from a funnel fixed in the front wall of a chamber made of an opaque material (FIG. 1b). The animals were exposed to the gas mixture containing 7% CO2 (mixed with 60% O2 and 33% N2) for 5 minutes with recording of respiratory activity for another 2 minutes (a total recording duration of 7 minutes).
(§3) The 5HT1A receptor antagonist, p-MPPI (RBI, Natick, Mass.) was also dissolved in 0.9% saline and given i.p. in a dose of 3 mg/kg (pH 7.4 and final volume of 0.5 ml). […] Vehicle solution (VEH) was 0.9% saline and also injected at i.p. (pH 7.4; volume: 0.5 ml/rat).
Baseline respiratory function was measured under room air ventilation and after the animal was stabilized inside a boy cylinder (FIGS. 1a and b) for 30 minutes at each time point prior to SCI and after injury. Immediately following the evaluation of baseline respiration, the animals were let to breathe air containing 7% CO2 for 7 minutes to monitor their ventilatory response to CO2 stimulus (Teng et al., 1998a and 1999).

[2] = system: normal conscious rats; assay: Respiratory function by head-out plethysmograph in normal conscious rats; assay type: in vivo, rat
Experimental: as §1, §2, §3

[3] = rats; cited from earlier work
[4] = system: SOD1 mice; assay: Respiratory function (tidal volume, respiratory rate) in SOD1 mice, model of familial ALS; assay type: in vivo, mouse
Experimental: SOD1 mice are mutant mice which provide an animal model for an inherited form of ALS which is more commonly referred to as familial ALS. […] These parameters of respiratory function were subsequently reevaluated 2 minutes after drug treatment.

[5] = system: child with apneusis; settings: buspirone orally 8 mg/day; cited from earlier work
[6] = system: mdx mutant mice; settings: clenbuterol orally 1.0–1.5 mg/kg body weight/day, one year, cited from earlier work
[7] = 24 hours p.i., 8-OH-DPAT 250 μg/kg i.p., time-course study, n=3
[8] = 24 hours post SCI, pre-treated with p-MPPI 3 mg/kg i.p. 20 min before, 7% CO2 at 16′ & 17′ after 8-OH-DPAT
[9] = 24 hours post SCI, pre-treated with p-MPPI 3 mg/kg i.p. 20 min before, baseline, 3 & 4 min post 8-OH-DPAT
[10] = 24 hours post SCI, pre-treated with p-MPPI 3 mg/kg i.p. 20 min before, baseline, 9 & 10 min post 8-OH-DPAT
[11] = 24 h p.i., 7% CO2 at 24 min after 8-OH-DPAT 250 μg/kg i.p.
[12] = 24 h p.i., baseline (room air), 3 & 4 min post 8-OH-DPAT 250 μg/kg i.p.
[13] = 24 h p.i., baseline (room air), 21 & 22 min post 8-OH-DPAT 250 μg/kg i.p.
[14] = 7 d p.i., 7% CO2 at 31′ & 32′ post 8-OH-DPAT 250 μg/kg i.p.
[15] = 7 d p.i., baseline (room air), 3 & 4 min post 8-OH-DPAT 250 μg/kg i.p.
[16] = 7 d p.i., baseline (room air), 21 & 22 min post 8-OH-DPAT 250 μg/kg i.p.
[17] = 7% CO2 at 31′ & 32′ after 8-OH-DPAT 250 μg/kg i.p.
[18] = baseline (room air), 3 & 4 min post 8-OH-DPAT 250 μg/kg i.p.
[19] = baseline (room air), 11 & 12 min post 8-OH-DPAT 250 μg/kg i.p.
[20] = baseline (room air), 21 & 22 min post 8-OH-DPAT 250 μg/kg i.p.
[21] = 24 hours after SCI, 7% CO2 at 15 & 16 min after buspirone 1.5 mg/kg i.p.
[22] = 24 hours after SCI, baseline (room air), 3 & 4 min post buspirone 1.5 mg/kg i.p.
[23] = 24 hours after SCI, baseline (room air), 8 & 9 min post buspirone 1.5 mg/kg i.p.
[24] = 24 hours p.i., buspirone 1.5 mg/kg i.p.
[25] = buspirone 3.0 mg/kg i.p. or s.c. (FIGS. 6 and 7)

Compound: CCCN(CCC)C1CCc2cccc(O)c2C1 (stereo not drawn) [8-OH-DPAT, 8-hydroxy-2-(di-n-propylamino)tetralin]
- effect on SCI-induced abnormal respiratory pattern ([1]; 24 hours after SCI, 8-OH-DPAT 250 μg/kg i.p.): promptly and successfully reversed the injury-triggered respiratory abnormalities
- duration of initial rise of f above p.i. levels ([1]; 24 hours p.i., 8-OH-DPAT 250 μg/kg i.p.): about 20 minutes
- time for which a single dose normalized ventilatory response to breathing 7% CO2 [1, 7]: more than 2 hours
- time for which improvement of baseline Ve (room air) was significant [1, 7]: 1 h
- Te (expiratory time) [1, 8]: 0.32 ± 0.05
- Ti (inspiratory time) [1, 8]: 0.19 ± 0.02
- Tv (tidal volume) [1, 8]: 1.15 ± 0.21↓ ml
- Ve (minute ventilation) [1, 8]: 143.1 ± 28.1↓ ml/min
- f (respiratory rate) [1, 8]: 126.8 ± 14.4 breaths/min
- Te (expiratory time) [1, 9]: 0.32 ± 0.08↓
- Ti (inspiratory time) [1, 9]: 0.32 ± 0.02
- Tv (tidal volume) [1, 9]: 0.85 ± 0.14↓ ml
- Ve (minute ventilation) [1, 9]: 82.5 ± 10.9↓ ml/min
- f (respiratory rate) [1, 9]: 99.4 ± 9.1↑ breaths/min
- Te (expiratory time) [1, 10]: 0.28 ± 0.02↓
- Ti (inspiratory time) [1, 10]: 0.31 ± 0.02
- Tv (tidal volume) [1, 10]: 0.82 ± 0.11↓ ml
- Ve (minute ventilation) [1, 10]: 88.3 ± 13.3↓ ml/min
- f (respiratory rate) [1, 10]: 107.5 ± 1.9↑ breaths/min
- Ti (inspiratory time) [1, 11]: 0.17 ± 0.01
- Tv (tidal volume) [1, 11]: 1.52 ± 0.08 mL
- Ve (minute ventilation) [1, 11]: 267.5 ± 21.8 mL/min
- f (respiratory rate) [1, 11]: 175.9 ± 9.7 breaths/min
- Te (expiratory time) [1, 12]: 0.25 ± 0.02↓
- Ti (inspiratory time) [1, 12]: 0.19 ± 0.01
- Tv (tidal volume) [1, 12]: 0.96 ± 0.08 mL
- Ve (minute ventilation) [1, 12]: 149.9 ± 15.6↑ ml/min
- f (respiratory rate) [1, 12]: 155.5 ± 8.7↑ breaths/min
- Te (expiratory time) [1, 13]: 0.47 ± 0.02
- Ti (inspiratory time) [1, 13]: 0.18 ± 0.01
- Tv (tidal volume) [1, 13]: 0.80 ± 0.06 mL
- Ve (minute ventilation) [1, 13]: 81.3 ± 10.9 mL/min
- f (respiratory rate) [1, 13]: 98.5±3.7 breaths/min and 98.5 ± 5.18 breaths/min
- effect on SCI-induced abnormal respiratory pattern ([1]; 7 days p.i., 8-OH-DPAT 250 μg/kg i.p.): restored this abnormal pattern of breathing to normal
- Te (expiratory time) [1, 14]: 0.17 ± 0.01
- Ti (inspiratory time) [1, 14]: 0.16 ± 0.01
- Tv (tidal volume) [1, 14]: 1.79 ± 0.35 mL
- Ve (minute ventilation) [1, 14]: 327.2 ± 53.7↑ ml/min
- f (respiratory rate) [1, 14]: 184.6 ± 6.6↑ breaths/min
- Te (expiratory time) [1, 15]: 0.26 ± 0.03↓
- Ti (inspiratory time) [1, 15]: 0.16 ± 0.01
- Tv (tidal volume) [1, 15]: 1.11 ± 0.05 mL
- Ve (minute ventilation) [1, 15]: 172.1 ± 17.1↑ ml/min
- f (respiratory rate) [1, 15]: 155.2 ± 8.9↑ breaths/min
- Te (expiratory time) [1, 16]: 0.32 ± 0.02↓
- Ti (inspiratory time) [1, 16]: 0.15 ± 0.01
- Tv (tidal volume) [1, 16]: 0.79 ± 0.04 mL
- Ve (minute ventilation) [1, 16]: 103.0 ± 2.1↑ ml/min
- f (respiratory rate) [1, 16]: 131.7 ± 7.7↑ breaths/min
- Te (expiratory time) [2, 17]: 0.23 ± 0.03
- Ti (inspiratory time) [2, 17]: 0.19 ± 0.01
- Tv (tidal volume) [2, 17]: 1.50 ± 0.14 mL
- Ve (minute ventilation) [2, 17]: 239.3 ± 48.9 mL/min
- f (respiratory rate) [2, 17]: 155.6 ± 18.5 breaths/min
- duration of increase in baseline Vt ([2]; 8-OH-DPAT 250 μg/kg i.p.): 4 min
- duration of stimulating effect on f ([2]; 8-OH-DPAT 250 μg/kg i.p., to last minute of observation): ≥ 23 min
- Te (expiratory time) [2, 18]: 0.25 ± 0.09↓
- Ti (inspiratory time) [2, 18]: 0.19 ± 0.04
- Tv (tidal volume) [2, 18]: 1.14 ± 0.08↑ ml
- Ve (minute ventilation) [2, 18]: 198.6 ± 32.9↑ ml/min
- f (respiratory rate) [2, 18]: 177.5 ± 36.2↑ breaths/min
- Te (expiratory time) [2, 19]: 0.30 ± 0.07↓
- Ti (inspiratory time) [2, 19]: 0.16 ± 0.02
- Tv (tidal volume) [2, 19]: 0.92 ± 0.05 mL
- Ve (minute ventilation) [2, 19]: 138.6 ± 27.6↑ ml/min
- f (respiratory rate) [2, 19]: 149.8 ± 26.5↑ breaths/min
- Te (expiratory time) [2, 20]: 0.41 ± 0.08↓
- Ti (inspiratory time) [2, 20]: 0.18 ± 0.02
- Tv (tidal volume) [2, 20]: 0.84 ± 0.02 mL
- Ve (minute ventilation) [2, 20]: 112.9 ± 15.2↑ ml/min
- f (respiratory rate) [2, 20]: 134.4 ± 21.2↑ breaths/min
- ventilatory response to 7% CO2 challenge ([2]; starting at 24 minutes after 8-OH-DPAT): did not significantly alter
- systematic half life (T1/2) [3]: ~50 min

Compound: O=C1CC2(CCCC2)CC(=O)N1CCCCN1CCN(c2ncccn2)CC1 [buspirone]
- Te (expiratory time) [1, 21]: 0.21 ± 0.03
- Ti (inspiratory time) [1, 21]: 0.17 ± 0.01
- Tv (tidal volume) [1, 21]: 1.46 ± 0.14 mL
- Ve (minute ventilation) [1, 21]: 240.9 ± 44.8 mL/min
- Te (expiratory time) [1, 22]: 0.27 ± 0.03↑
- Ti (inspiratory time) [1, 22]: 0.19 ± 0.01
- Tv (tidal volume) [1, 22]: 1.17 ± 0.13 mL
- Ve (minute ventilation) [1, 22]: 171.3 ± 30.1 mL/min
- Te (expiratory time) [1, 23]: 0.40 ± 0.05
- Ti (inspiratory time) [1, 23]: 0.20 ± 0.03
- Ve (minute ventilation) [1, 23]: 101.8 ± 11.4 mL/min
- SCI reduced Vt values after treatment [1, 24]: levels indiscenible from pre-injury readings
- duration of effect on Vt (printed Bt) [1, 24]: up to 9 minutes
- effect on abnormal respiratory function resulting from T8 SCI [1, 24]: reversed the abnormal respiratory function
- respiratory frequency [4, 25]: reduces
- tidal volume [4, 25]: significantly increases
- respiratory function (tidal volume, respiratory rate) ([4]; buspirone 3.0 mg/kg subcutaneous, 2 minutes after treatment): significantly improved
- apneusis [5]: reverses apneusis

Compound: CC(C)(C)NCC(O)c1cc(Cl)c(N)c(Cl)c1 (stereo not drawn) [clenbuterol]
- increase in myosin concentration of mdx diaphram (DIA) ([6]; mdx mice): 22%
- soleus (SOL) weight and SOL muscle weight to body weight ratio ([6]; normal control and mdx mice): significantly increase

— US7071194B2, “Method for improving respiratory function and inhibiting muscular degeneration” (priority 2000, dated 2006)
